We go through three compounds from paper PMC8510478, “Characterization and Identification of Bioactive Polyphenols in the Trapa bispinosa Roxb. Pericarp Extract” (Molecules, 2021).

Like-named read-outs stand apart in the source and are kept apart here.

The nature of series [1]: AGE-derived crosslink-cleaving effect (PPD cleavage to benzoic acid, HPLC). The settings on record: for Crosslink-Cleaving Activities Relative Ratio: tested samples 100 μg/mL, relative to PTB = 100, means ± SE (n = 3). As to the method:
The AGE crosslink-cleaving activity of the same samples was evaluated according to the previously described method by Kato et al. with a slight modification. Briefly, the 1 mg/mL of tested samples prepared with H2O were mixed with 1.13 mM PPD solution in MeOH:50 mM phosphate buffer (pH 7.4) (1:1) and incubated at 37 °C for 4 h. After 4 h, the reaction was stopped with 200 μL of 2 M HCl, then the stopped reaction mixtures were centrifuged at 8200× g for 5 min. The amount of benzoic acid in the supernatant was measured by reversed-phase HPLC. The following conditions were applied: column, InertSustain C18 column (150 mm × 4.6 i.d mm., 5 μm); mobile phase, 50 mM phosphate buffer (pH 2.2):CH3CN (80:20) (solvent A) and 50 mM phosphate buffer (pH 2.2):CH3CN (50:50) (solvent B), the gradient program, 0–20 min (solvent B: 0–25%), 20–25 min (solvent B: 25–100%), 25–36 min (solvent B: 100–25%); column temperature, 40 °C; detection, UV at 230 nm; flow rate, 1.0 mL/min. These cleaving effects were calculated as equivalents to benzoic acid.

The subject of series [2] is AGE formation in human serum albumin (HSA)/glucose or fructose. The series is described as follows: Inhibitory effect on AGE formation (HSA with glucose or fructose, fluorescence). Format: biochemical. The settings on record: 60 °C, 40 h, means ± SE (n = 3). As to the method:
The antiglycation effects of compounds isolated from TBE and several other related compounds were evaluated based on their AGE inhibitory activities as described previously, with slight modifications. Briefly, the sample solution was added to a reaction mixture containing 83.3 mM phosphate buffer (pH 7.2), 2.0 M glucose, 2.0 M fructose, 8.0 mg/mL human serum albumin (HSA), and distilled water (6:1:1:1:1, v/v). As a control, the vehicle was supplemented instead of the sample solution. For each blank, glucose or fructose was replaced with distilled water, and the total volume was set to 1000 μL. After incubation of the sample mixture at 60 °C for 40 h, the solutions were diluted 8-fold with distilled water, dispensed into a black microplate in 200 µL portions, and their fluorescence intensities were measured at excitation and emission wavelengths of 370 and 465 nm, respectively, using a Power Scan HT (DS Pharma Biomedical Co. Ltd., Osaka, Japan). The inhibitory rate was calculated as; Inhibitory rate (%) = 100 − [(S − SB)/(C − CB)] × 100(2) where S is the relative intensity of the sample solution, C is the relative intensity of the control solution, and SB and CB are the intensities of the glucose or fructose-omitted blank solutions. The experimental data are represented as IC50 (μM) values.

Series [3] deals with α-glucosidase. Set-up: method as in earlier work. The settings on record: table lines marked with reference 8; means ± SE (n = 3); read-out: Inhibitory Effects on α-Glucosidase Activity IC50; cited from earlier work.
Series [4] concerns α-glucosidase. Description: α-Glucosidase inhibitory activity (rat intestinal acetone powder, maltose substrate). Format: biochemical. The procedure:
The α-glucosidase inhibitory activity was tested according to the previously described method by Kirino et al. with a slight modification. Rat intestinal acetone powder was mixed with 0.1 M phosphate buffer (pH 7) and centrifuged at 18,500× g and 4 °C for 20 min. The resulting supernatant was collected and used as a glucosidase solution for enzymatic assay. Each sample solution (160 μL) was mixed with 250 mM maltose solution (20 μL) in 0.2 M phosphate buffer (pH 7) and then incubated at 37 °C for 3 min. After incubation, the enzymatic reaction was started by adding glucosidase solution from the rat intestine (20 μL) and the resulting reaction mixtures were further incubated at 37 °C for 15 min. After 15 min, the reaction mixtures were immediately heated at 100 °C for 5 min to stop the reaction followed by cooling on ice for 5 min. The amount of glucose in the reaction mixtures was determined using the F-Kit glucose (Roche diagnostics, Co., Tokyo, Japan) by measuring the absorbance at 340 nm. A control was carried out with 0.1 M phosphate buffer (pH 7) instead of sample solution. For the blank, the glucosidase solution was replaced with distilled water. The glucosidase inhibitory rates of tested samples were calculated as; Inhibitory rate (%) = 100 − [(Asample − Ablank)/(Acontrol − Ablank)] × 100(1) where Asample, Acontrol, and Ablank is the absorbance of the tested sample, control, and blank, respectively. The experimental data are represented as IC50 (μM) values.

Setting [5] is: HSA/fructose, read-out: Inhibitory Effects on AGE Formation IC50, Fructose.
The mark [6] stands for this setting: HSA/glucose, read-out: Inhibitory Effects on AGE Formation IC50, Glucose.

Usually IC50 stands for the concentration that gives 50% inhibition. `O=C(OC[C@H]1O[C@@H](OC(=O)c2cc(O)c(O)c(O)c2)[C@H](OC(=O)c2cc(O)c(O)c(O)c2)[C@@H](OC(=O)c2cc(O)c(O)c(O)c2)[C@@H]1O)c1cc(O)c(O)c(O)c1` [Compound 5, 1,2,3,6-tetra-O-galloyl-β-D-glucose]: the “Crosslink-Cleaving Activities Relative Ratio” value in series [1] was determined as 209.0 ± 33.7. The figures for the IC50 (in series [2] (setting [5]); in series [2] (setting [6]); at α-glucosidase [3]) were 300 nM, 300 nM and above 100000 nM, respectively.
Turning to `O=C(OC1O[C@@H]2COC(=O)c3cc(O)c(O)c(O)c3-c3c(cc(O)c(O)c3O)C(=O)O[C@H]2[C@H](OC(=O)c2cc(O)c(O)c(O)c2)[C@H]1OC(=O)c1cc(O)c(O)c(O)c1)c1cc(O)c(O)c(O)c1` (some centres unmarked) [Compound 7, tellimagrandin II], the “Crosslink-Cleaving Activities Relative Ratio” value in series [1] turned out to be 230.8 ± 12.2. The values for the IC50 (in series [2] (setting [5]); in series [2] (setting [6]); on α-glucosidase [3]) were 300 nM, 200 nM and above 100000 nM, respectively.
As to `O=C(O)c1cc(O)c(O)c(O)c1` [Gallic acid], in the series on α-glucosidase [4], the “α-Glucosidase inhibitory activity (in words)” value is given as “little effect”. Also, in series [1] (compared with positive control PTB), the “AGE cross-link cleaving activity (in words)” value is “remarkable activities”. Besides, the “Crosslink-Cleaving Activities Relative Ratio” value in series [1] amounted to 720.1 ± 54.1. For the same compound, the IC50 in series [2] (setting [5]) was 27000 ± 2600 nM; in series [2] (setting [6]), 14700 ± 2000 nM; at α-glucosidase [3] it was above 100000 nM.
